# Patent US20050009840A1 (SUGEN, INC., priority 2003, published 2005)
# Target: T1, HGFR (Homo sapiens, UniProt P08581)
# T1 construct: purchased Upstate 14-526
# Experiment: HGFR continuous-coupled spectrophotometric assay
# Type: biochemical
# Details: at 1 pM; Table 7, library procedure 42; read-out: % Inhibition (percent c-MET inhibition)
# T1 sequence (P08581 974-1390 limits assumed): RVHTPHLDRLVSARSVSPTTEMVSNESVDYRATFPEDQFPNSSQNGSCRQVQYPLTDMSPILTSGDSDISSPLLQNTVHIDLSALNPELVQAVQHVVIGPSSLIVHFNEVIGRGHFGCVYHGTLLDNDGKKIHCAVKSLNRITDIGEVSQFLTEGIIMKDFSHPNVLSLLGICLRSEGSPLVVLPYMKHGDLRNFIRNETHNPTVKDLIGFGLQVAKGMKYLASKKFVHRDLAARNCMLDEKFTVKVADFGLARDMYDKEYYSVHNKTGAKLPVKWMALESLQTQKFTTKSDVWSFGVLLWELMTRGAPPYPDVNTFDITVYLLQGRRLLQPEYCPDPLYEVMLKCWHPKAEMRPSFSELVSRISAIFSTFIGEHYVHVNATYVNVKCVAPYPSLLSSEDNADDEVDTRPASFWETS
row,SMILES,inhibition at 1 pM
1,Nc1ncc(-c2ccc(C(=O)N3CCC(N4CCCC4)CC3)cc2)cc1OCc1ccc(F)c(F)c1,19%
2,CC(C)c1ccc(COc2cc(-c3ccc(C(=O)N4CCC(N5CCCC5)CC4)cc3)cnc2N)cc1,32%
3,Nc1ncc(-c2ccc(C(=O)N3CCC(N4CCCC4)CC3)cc2)cc1OCc1ccccc1-c1ccccc1,22%
4,Nc1ncc(-c2ccc(C(=O)N3CCC(N4CCCC4)CC3)cc2)cc1OCc1ccc(OC(F)(F)F)cc1,20%
5,Nc1ncc(-c2ccc(C(=O)N3CCC(N4CCCC4)CC3)cc2)cc1OCc1cc(F)cc(F)c1,14%
6,Nc1ncc(-c2ccc(C(=O)N3CCC(N4CCCC4)CC3)cc2)cc1OCc1cccc(F)c1F,24%
7,COc1ccc(-c2nc(COc3cc(-c4ccc(C(=O)N5CCC(N6CCCC6)CC5)cc4)cnc3N)no2)cc1,10%
8,COc1cc(COc2cc(-c3ccc(C(=O)N4CCC(N5CCCC5)CC4)cc3)cnc2N)cc(OC)c1OC,10%
9,Nc1ncc(-c2ccc(C(=O)N3CCC(N4CCCC4)CC3)cc2)cc1OCc1cc(Cl)cc(Cl)c1,19%
10,Nc1ncc(-c2ccc(C(=O)N3CCC(N4CCCC4)CC3)cc2)cc1OCc1cccc(Oc2ccccc2)c1,34%
11,Nc1ncc(-c2ccc(C(=O)N3CCC(N4CCCC4)CC3)cc2)cc1OCc1cccc(Cl)c1Cl,40%
12,Cc1ccc(COc2cc(-c3ccc(C(=O)N4CCC(N5CCCC5)CC4)cc3)cnc2N)cc1Cl,26%
13,Nc1ncc(-c2ccc(C(=O)N3CCC(N4CCCC4)CC3)cc2)cc1OCc1cc(Cl)ccc1Cl,26%
14,Nc1ncc(-c2ccc(C(=O)N3CCC(N4CCCC4)CC3)cc2)cc1OCc1nc(CS(=O)(=O)c2ccccn2)no1,9%
15,Nc1ncc(-c2ccc(C(=O)N3CCC(N4CCCC4)CC3)cc2)cc1OCc1cc(-c2c(Cl)cccc2Cl)no1,14%
16,CC(=O)N(c1ccc(C)cc1)c1nc(COc2cc(-c3ccc(C(=O)N4CCC(N5CCCC5)CC4)cc3)cnc2N)cs1,9%
17,CC(Oc1cc(-c2ccc(C(=O)N3CCC(N4CCCC4)CC3)cc2)cnc1N)c1ccccc1 (centres unmarked),10%
18,Nc1ncc(-c2ccc(C(=O)N3CCC(N4CCCC4)CC3)cc2)cc1OCc1cccc(OC(F)(F)F)c1,13%
19,Cc1cc(COc2cc(-c3ccc(C(=O)N4CCC(N5CCCC5)CC4)cc3)cnc2N)nc(-c2ccc(C(F)(F)F)cn2)n1,8%
20,Nc1ncc(-c2ccc(C(=O)N3CCC(N4CCCC4)CC3)cc2)cc1OCc1cc(F)ccc1Br,24%
21,Cc1cc(C)cc(COc2cc(-c3ccc(C(=O)N4CCC(N5CCCC5)CC4)cc3)cnc2N)c1,14%
22,COc1cccc(COc2cc(-c3ccc(C(=O)N4CCC(N5CCCC5)CC4)cc3)cnc2N)c1,15%
23,Nc1ncc(-c2ccc(C(=O)N3CCC(N4CCCC4)CC3)cc2)cc1OCc1ccc(Cl)cc1,15%
24,Nc1ncc(-c2ccc(C(=O)N3CCC(N4CCCC4)CC3)cc2)cc1OCc1cccc(Cl)c1F,28%
25,Nc1ncc(-c2ccc(C(=O)N3CCC(N4CCCC4)CC3)cc2)cc1OCc1ccc(Cl)c(Cl)c1,26%
26,Nc1ncc(-c2ccc(C(=O)N3CCC(N4CCCC4)CC3)cc2)cc1OCc1cc(F)c(F)cc1F,12%

row,SMILES,inhibition at 1 pM
1,Nc1ncc(-c2ccc(C(=O)N3CCC(N4CCCC4)CC3)cc2)cc1OCc1ccc(F)c(F)c1F,15%
2,Nc1ncc(-c2ccc(C(=O)N3CCC(N4CCCC4)CC3)cc2)cc1OCc1ccc(C(F)(F)F)cc1C(F)(F)F,12%
3,Nc1ncc(-c2ccc(C(=O)N3CCC(N4CCCC4)CC3)cc2)cc1OCc1c(F)ccc(F)c1F,30%
4,Nc1ncc(-c2ccc(C(=O)N3CCC(N4CCCC4)CC3)cc2)cc1OCc1ccc(C(F)(F)F)cc1,10%
5,Cc1cccc(COc2cc(-c3ccc(C(=O)N4CCC(N5CCCC5)CC4)cc3)cnc2N)c1F,28%
6,CC(Oc1cc(-c2ccc(C(=O)N3CCC(N4CCCC4)CC3)cc2)cnc1N)c1ccccc1C(F)(F)F (centres unmarked),21%
7,CC(=O)Nc1nc(COc2cc(-c3ccc(C(=O)N4CCC(N5CCCC5)CC4)cc3)cnc2N)cs1,9%
8,Nc1ncc(-c2ccc(C(=O)N3CCC(N4CCCC4)CC3)cc2)cc1OCc1ccccc1CS(=O)(=O)c1ccccc1,11%
9,Nc1ncc(-c2ccc(C(=O)N3CCC(N4CCCC4)CC3)cc2)cc1OC1OC(=O)c2ccccc21 (centres unmarked),4%
10,Nc1ncc(-c2ccc(C(=O)N3CCC(N4CCCC4)CC3)cn2)cc1OCc1ccc(-c2csnn2)cc1,41%
11,Nc1ncc(-c2ccc(C(=O)N3CCN(C4CCCC4)CC3)cc2)cc1OCc1cc(F)cc2c1OCOC2,21%
12,Nc1ncc(-c2ccc(C(=O)N3CCC(N4CCCC4)CC3)cc2)cc1OCc1cc(C(F)(F)F)cc(C(F)(F)F)c1,14%
13,Nc1ncc(-c2ccc(C(=O)N3CCC(N4CCCC4)CC3)cc2)cc1OCc1ccc(F)c(C(F)(F)F)c1,13%
14,Nc1ncc(-c2ccc(C(=O)N3CCC(N4CCCC4)CC3)cc2)cc1OCc1cc(F)cc(C(F)(F)F)c1,12%
15,Nc1ncc(-c2ccc(C(=O)N3CCC(N4CCCC4)CC3)cc2)cc1OCc1c(F)cccc1C(F)(F)F,31%
16,Nc1ncc(-c2ccc(C(=O)N3CCC(N4CCCC4)CC3)cc2)cc1OCc1cc(F)c(F)c(F)c1,19%
17,Nc1ncc(-c2ccc(C(=O)N3CCC(N4CCCC4)CC3)cc2)cc1OCc1ccccc1OC(F)F,27%
18,Nc1ncc(-c2ccc(C(=O)N3CCC(N4CCCC4)CC3)cc2)cc1OCc1ccc(C(F)(F)F)c(F)c1,25%
19,Nc1ncc(-c2ccc(C(=O)N3CCC(N4CCCC4)CC3)cc2)cc1OCc1ccc(Br)cc1F,31%
20,Nc1ncc(-c2ccc(C(=O)N3CCC(N4CCCC4)CC3)cc2)cc1OCc1cc(Br)cc(Br)c1,45%
21,CS(=O)(=O)c1ccc(COc2cc(-c3ccc(C(=O)N4CCC(N5CCCC5)CC4)cc3)cnc2N)cc1,11%
22,N#Cc1ccccc1-c1ccc(COc2cc(-c3ccc(C(=O)N4CCC(N5CCCC5)CC4)cc3)cnc2N)cc1,77%
23,Nc1ncc(-c2ccc(C(=O)N3CCC(N4CCCC4)CC3)cc2)cc1OCc1ccc(C(=O)NCCN2CCOCC2)cc1,11%
24,CN(C)CCNC(=O)c1ccc(COc2cc(-c3ccc(C(=O)N4CCC(N5CCCC5)CC4)cc3)cnc2N)cc1,9%
25,Nc1ncc(-c2ccc(C(=O)N3CCC(N4CCCC4)CC3)cc2)cc1OCc1ccc(C(=O)N2CCNC(c3ccccc3)C2)cc1 (centres unmarked),12%
26,Nc1ncc(-c2ccc(C(=O)N3CCC(N4CCCC4)CC3)cc2)cc1OCc1ccc(C(=O)NCc2ccccn2)cc1,7%

row,SMILES,inhibition at 1 pM
1,Nc1ncc(-c2ccc(C(=O)N3CCC(N4CCCC4)CC3)cc2)cc1OCc1cccc(C(=O)Nc2cccnc2)c1,10%
2,Nc1ncc(-c2ccc(C(=O)N3CCC(N4CCCC4)CC3)cc2)cc1OCc1cccc(C(=O)NCc2cccnc2)c1,14%
3,Nc1ncc(-c2ccc(C(=O)N3CCC(N4CCCC4)CC3)cc2)cc1OCc1cccc(C(=O)NCc2ccncc2)c1,10%
4,Nc1ncc(-c2ccc(C(=O)N3CCC(N4CCCC4)CC3)cc2)cc1OCc1cccc(C(=O)NCCc2ccccn2)c1,12%
5,Nc1ncc(-c2ccc(C(=O)N3CCC(N4CCCC4)CC3)cc2)cc1OCc1cccc(C(=O)NC2CCN(Cc3ccccc3)C2)c1 (centres unmarked),13%
6,Nc1ncc(-c2ccc(C(=O)N3CCC(N4CCCC4)CC3)cc2)cc1OCc1ccc(C(=O)NCCc2ccccn2)cc1,11%
7,Nc1ncc(-c2ccc(C(=O)N3CCC(N4CCCC4)CC3)cc2)cc1OCc1ccc(C(=O)NCCN2CCCC2)cc1,10%
8,Nc1ncc(-c2ccc(C(=O)N3CCC(N4CCCC4)CC3)cc2)cc1OCc1ccc(C(=O)NCCCN2CCCC2=O)cc1,11%
9,Nc1ncc(-c2ccc(C(=O)N3CCC(N4CCCC4)CC3)cc2)cc1OCc1cccc(C(=O)NC2CCN(Cc3ccccc3)CC2)c1,13%
10,Nc1ncc(-c2ccc(C(=O)N3CCC(N4CCCC4)CC3)cc2)cc1OCc1ccc(C(=O)NC2CCN(Cc3ccccc3)CC2)cc1,11%
11,CCN1CCCC1CNC(=O)c1cccc(COc2cc(-c3ccc(C(=O)N4CCC(N5CCCC5)CC4)cc3)cnc2N)c1 (centres unmarked),10%
12,CCN1CCCC1CNC(=O)c1ccc(COc2cc(-c3ccc(C(=O)N4CCC(N5CCCC5)CC4)cc3)cnc2N)cc1 (centres unmarked),18%
13,CN(C)c1ccc(NC(=O)c2cccc(COc3cc(-c4ccc(C(=O)N5CCC(N6CCCC6)CC5)cc4)cnc3N)c2)cc1,23%
14,CCN(CC)c1ccc(NC(=O)c2ccc(COc3cc(-c4ccc(C(=O)N5CCC(N6CCCC6)CC5)cc4)cnc3N)cc2)cc1,47%
15,Nc1ncc(-c2ccc(C(=O)N3CCC(N4CCCC4)CC3)cc2)cc1OCc1ccc(C(=O)NCc2cccnc2)cc1,15%
16,Nc1ncc(-c2ccc(C(=O)N3CCC(N4CCCC4)CC3)cc2)cc1OCc1ccc(C(=O)NC2CCN(Cc3ccccc3)C2)cc1 (centres unmarked),24%
17,Nc1ncc(-c2ccc(C(=O)N3CCC(N4CCCC4)CC3)cc2)cc1OCc1cccc(C(=O)Nc2ccc(N3CCCCC3)cc2)c1,32%
18,CC(C)Oc1cc(C(F)(F)F)nc2ccc(COc3cc(-c4ccc(C(=O)N5CCC(N6CCCC6)CC5)cc4)cnc3N)cc12,19%
19,Nc1ncc(-c2ccc(C(=O)N3CCC(N4CCCC4)CC3)cc2)cc1OCc1csc(-c2ccc(C(F)(F)F)cc2)n1,21%
20,Nc1ncc(-c2ccc(C(=O)N3CCC(N4CCCC4)CC3)cc2)cc1OCc1ccc2ccccc2c1Br,59%
21,CN(C)CCNC(=O)c1cccc(COc2cc(-c3ccc(C(=O)N4CCC(N5CCCC5)CC4)cc3)cnc2N)c1,20%
22,Nc1ncc(-c2ccc(C(=O)N3CCC(N4CCCC4)CC3)cc2)cc1OCc1cc(C(F)(F)F)ccc1Cl,26%
23,Nc1ncc(-c2ccc(C(=O)N3CCC(N4CCCC4)CC3)cc2)cc1OCc1cc(F)ccc1C(F)(F)F,26%
24,Nc1ncc(-c2ccc(C(=O)N3CCC(N4CCCC4)CC3)cc2)cc1OCc1ccccc1OC(F)(F)F,21%
25,CCOC(=O)C1CCN(C(=O)c2ccc(COc3cc(-c4ccc(C(=O)N5CCC(N6CCCC6)CC5)cc4)cnc3N)cc2)CC1,16%
